In patent US6737431B2 (Bristol-Myers Squibb Company, priority 2002, dated 2004):

Legend:
melatonin ML1a receptor = molecular target: T1, melatonin ML1a receptor (Homo sapiens, UniProt P48039); experiment: Melatonergic receptor binding, 2-[125I]-iodomelatonin, ML1a; details: NIH-3T3 membranes, 0.1 nM 2-[125I]-iodomelatonin, 37° C. 1 hour
T1 construct: expressed in transfected cells; membrane homogenates
Method: (§1) Melatonergic Receptor Binding Activity
(§2) (a) TME=50 mM Tris buffer containing 12.5 mM MgCl2, and 2 mM EDTA, pH 7.4 at 37° C., with concentrated HCl.
(§3) (b) Wash buffer: 20 mM Tris base containing 2 mM MgCl2, pH 7.4 at room temperature.
(§4) (c) 10^−4 M melatonin (10^−5 M final concentration).
(d) 2-[^125I]-iodomelatonin ML1a, 0.1 nM final concentration.
(§5) 2. Membrane Homogenates: The melatonin ML1a and ML1b receptors cDNA were individually subcloned into pcDNA3 and introduced into NIH-3T3 cells using Lipofectamine. Transformed NIH-3T3 cells resistant to geneticin (G-418) were isolated, and single colonies expressing high levels of 2[^125I]-iodomelatonin binding were isolated. Cells are maintained in DMEM supplemented with 10% calf serum and G-418 (0.5 g/liter). Cells are grown to confluency in T-175 flasks, scraped using Hank's balanced salt solution, and frozen at −80° C. For preparing membrane homogenates, pellets are thawed on ice, and re-suspended in TME buffer in the presence of 10 μg/ml aprotinin and leupeptin, and 100 μM phenylmethylsulfonylfluoride. The cells were then homogenized using a dounce homogenizer, and centrifuged. The resulting pellet was re-suspended with dounce homogenizer in TME (supplemented with the above protease inhibitors) and frozen. On the day of assay, a small aliquot was thawed on ice and re-suspended in the ice cold TME (1:50-1:100 v/v) and held on ice until assayed.
(§6) 3. Incubation: 37° C. for 1 hour. Reaction is terminated by filtration. Filters were washed 3 times.
(§7) 4. References: Reppert, S. M. et al., Neuron, 13, p. 1177-1185 (1994); and Reppert, S. M. et al., Proc. Natl. Acad. Sci. USA, 92, p. 8734-8738 (1995).
(§8) The compounds of the present invention have affinity for receptors of the endogenous pineal hormone, melatonin, as determined in receptor binding assays described above in Tables I to III for the ML1a and ML1b (human) receptors. Melatonin is involved in the regulation of a variety of biological rhythms and exerts its biological effects via interaction with specific receptors. There is evidence that administration of melatonin agonists are of clinical utility in the treatment of various conditions regulated by melatonin activity. Such conditions include depression, jet-lag, work-shift syndrome, sleep disorders, glaucoma, some disorders associated with reproduction, cancer benign prostatic hyperplasia, immune disorders, and neuroendocrine disorders.

melatonin ML1b receptor = molecular target: T2, melatonin ML1b receptor (Homo sapiens, UniProt P49286); experiment: Melatonergic receptor binding, 2-[125I]-iodomelatonin, ML1b; details: NIH-3T3 membranes, 0.2 nM 2-[125I]-iodomelatonin, 37° C. 1 hour
T2 construct: expressed in transfected cells; membrane homogenates
T2 sequence (P49286 1-362): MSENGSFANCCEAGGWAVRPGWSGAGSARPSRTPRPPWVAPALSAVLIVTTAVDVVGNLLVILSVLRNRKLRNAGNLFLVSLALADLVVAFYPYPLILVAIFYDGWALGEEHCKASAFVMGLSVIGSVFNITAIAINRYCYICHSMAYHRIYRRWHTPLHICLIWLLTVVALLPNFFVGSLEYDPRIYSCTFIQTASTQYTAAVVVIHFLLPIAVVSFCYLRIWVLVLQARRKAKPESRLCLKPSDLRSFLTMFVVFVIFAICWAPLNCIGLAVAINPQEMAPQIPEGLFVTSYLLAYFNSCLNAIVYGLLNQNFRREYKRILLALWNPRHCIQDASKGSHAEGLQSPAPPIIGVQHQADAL
Method: as §1, §2, §3, §4
(e) 2-[^125I]-iodomelatonin ML1b, 0.2 nM final concentration.
as §5, §6, §7, §8

T1 sequence (P48039 whole entry): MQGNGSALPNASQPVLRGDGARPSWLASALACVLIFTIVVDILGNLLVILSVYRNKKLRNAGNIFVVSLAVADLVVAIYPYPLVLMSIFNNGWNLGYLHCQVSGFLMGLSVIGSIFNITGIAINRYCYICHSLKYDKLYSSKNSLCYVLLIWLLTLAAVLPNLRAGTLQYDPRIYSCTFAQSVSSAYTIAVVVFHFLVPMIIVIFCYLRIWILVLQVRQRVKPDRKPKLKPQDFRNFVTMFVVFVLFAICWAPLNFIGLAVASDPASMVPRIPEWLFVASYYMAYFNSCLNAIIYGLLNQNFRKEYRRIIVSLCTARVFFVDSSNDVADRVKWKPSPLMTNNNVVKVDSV

IC50 (melatonin ML1a receptor; Table II)	IC50 (melatonin ML1b receptor; Table II)	IC50 (melatonin ML1a receptor; Table I)	IC50 (melatonin ML1b receptor; Table I)	Compound	also measured
> 250 nM	> 250 nM	–	–	CCc1nc2cc(-c3ccc(OC)cc3)cc(CCCNC(=O)C3CC3)c2o1 [Example 64, Cyclopropyl-N-{3-[2-ethyl-5-(4-methoxyphenyl)benzoxazol-7-yl]propyl}carboxamide]	–
10 to 250 nM	< 10 nM	–	–	CCc1nc2ccc(-c3ccco3)c(CCCNC(=O)C3CC3)c2o1 [Example 75, Cyclopropyl-N-[3-(2-ethyl-6-(2-furyl)benzoxazol-7-yl)propyl]carboxamide]	–
> 250 nM	> 250 nM	–	–	C=Cc1cc(CCCNC(=O)C2CC2)c2oc(CC)nc2c1 [Example 72, Cyclopropyl-N-[3-(2-ethyl-5-vinylbenzoxazol-7-yl)propyl]carboxamide]	–
10 to 250 nM	> 250 nM	–	–	CCc1nc2cc(-c3ccccc3)cc(CCCNC(=O)C3CC3)c2o1 [Example 67, Cyclopropyl-N-[3-(2-ethyl-5-phenylbenzoxazol-7-yl)propyl]carboxamide]	–
< 10 nM	< 10 nM	–	–	CCc1nc2ccc(-c3ccco3)c(CCCNC(C)=O)c2o1 [Example 73, N-[3-(2-Ethyl-6-(2-furyl)benzoxazol-7-yl)propyl]acetamide]	–
–	> 250 nM	–	–	CCc1nc2ccc(-c3ccco3)c(CCCNC(=O)c3ccccc3)c2o1 [Example 74, N-[3-(2-Ethyl-6-(2-furyl)benzoxazol-7-yl)propyl]benzamide]	–

Second part, the compound before the results:

Compound	IC50 (melatonin ML1a receptor; Table II)	IC50 (melatonin ML1b receptor; Table II)	IC50 (melatonin ML1a receptor; Table I)	IC50 (melatonin ML1b receptor; Table I)	also measured
CCc1nc2ccc(-c3ccccc3)c(CCCNC(C)=O)c2o1 [Example 55, N-[3-(2-Ethyl-6-phenylbenzoxazol-7-yl)propyl]acetamide]	< 10 nM	< 10 nM	–	–	–
CCc1nc2ccc(-c3ccc(F)cc3)c(CCCNC(C)=O)c2o1 [Example 47, N-{3-[2-Ethyl-6-(4-fluorophenyl)benzoxazol-7-yl]propyl}acetamide]	10 to 250 nM	< 10 nM	–	–	–
CCC(=O)NC[C@@H]1C[C@H]1c1cccc2nc(CC)oc12 [Example 77, N-{[(1R,2R)-2-(2-Ethylbenzoxazol-7-yl)cyclopropyl]methyl}propanamide]	–	–	–	–	IC50 (melatonin ML1a receptor; Table III): < 10 nM; IC50 (melatonin ML1b receptor; Table III): < 10 nM
CCCC(=O)NC[C@@H]1C[C@H]1c1cccc2nc(C(C)C)oc12 [Example 87, N-({(1R,2R)-2-[2-(Methylethyl)benzoxazol-7-yl]cyclopropyl}methyl)butanamide]	–	–	–	–	IC50 (melatonin ML1a receptor; Table III): < 10 nM; IC50 (melatonin ML1b receptor; Table III): < 10 nM
CC(=O)NCCCc1cccc2nc(C)oc12 [Example 1, N-[3-(2-Methyl-7-benzoxazolyl)propyl]acetamide]	–	–	10 to 250 nM	10 to 250 nM	–
CC(=O)NCCCc1cccc2nc(C(C)C)oc12 [Example 34, N-{3-[2-(Methylethyl)benzoxazol-7-yl]propyl}acetamide]	–	–	10 to 250 nM	10 to 250 nM	–
CCC(=O)NCCCc1cccc2nc(-c3ccccc3)oc12 [Example 20, N-[3-(2-Phenylbenzoxazol-7-yl)propyl]propanamide]	–	–	10 to 250 nM	10 to 250 nM	–
CCc1nc2ccc(-c3ccc(F)cc3)c(CCCNC(=O)C3CC3)c2o1 [Example 49, Cyclopropyl-N-{3-[2-ethyl-6-(4-fluorophenyl)benzoxazol-7-yl]propyl}carboxamide]	10 to 250 nM	< 10 nM	–	–	–
CCc1nc2ccc(C)c(CCCNC(=O)C3CC3)c2o1 [Example 46, Cyclopropyl-N-[3-(2-ethyl-6-methylbenzoxazol-7-yl)propyl]carboxamide]	< 10 nM	< 10 nM	–	–	–
CCNC(=O)NCCCc1cccc2nc(CC)oc12 [Example 12, (Ethylamino)-N-[3-(2-ethylbenzoxazol-7-yl)propyl]carboxamide]	–	–	10 to 250 nM	10 to 250 nM	–
CCC(=O)NCCCc1cccc2nc(C)oc12 [Example 2, N-[3-(2-Methyl-7-benzoxazolyl)propyl]propanamide]	–	–	< 10 nM	< 10 nM	–
CCNC(=O)NCCCc1cccc2nc(C(C)C)oc12 [Example 39, (Ethylamino)-N-{3-[2-(methylethyl)benzoxazol-7-yl]propyl}carboxamide]	–	–	> 250 nM	10 to 250 nM	–
CCc1nc2cccc([C@@H]3C[C@H]3CNC(=O)C(C)C)c2o1 [Example 79, N-{[(1R,2R)-2-(2-Ethylbenzoxazol-7-yl)cyclopropyl]methyl}-2-methylpropanamide]	–	–	–	–	IC50 (melatonin ML1a receptor; Table III): < 10 nM; IC50 (melatonin ML1b receptor; Table III): < 10 nM
CCCC(=O)NC[C@@H]1C[C@H]1c1cccc2nc(CC)oc12 [Example 78, N-{[(1R,2R)-2-(2-Ethylbenzoxazol-7-yl)cyclopropyl]methyl}butanamide]	–	–	–	–	IC50 (melatonin ML1a receptor; Table III): < 10 nM; IC50 (melatonin ML1b receptor; Table III): < 10 nM
CCNC(=O)NCCCc1cccc2nc(CCCCc3ccccc3)oc12 [Example 30, (Ethylamino)-N-{3-[2-(4-phenylbutyl)benzoxazol-7-yl]propyl}carboxamide]	–	–	< 10 nM	10 to 250 nM	–
CCCC(=O)NCCCc1cccc2nc(C(C)C)oc12 [Example 36, N-{3-[2-(Methylethyl)benzoxazol-7-yl]propyl}butanamide]	–	–	10 to 250 nM	10 to 250 nM	–
N-({(1R,2R)-2-[2-(5-Phenylbutyl)benzoxazol-7-yl]cyclopropyl}methyl)-2-methylpropanamide [Example 97]	–	–	–	–	IC50 (melatonin ML1a receptor; Table III): < 10 nM; IC50 (melatonin ML1b receptor; Table III): < 10 nM
CCc1nc2ccc(-c3ccc(F)cc3)c(CCCNC(=O)c3ccccc3)c2o1 [Example 48, N-{3-[2-Ethyl-6-(4-fluorophenyl)benzoxazol-7-yl]propyl}benzamide]	> 250 nM	10 to 250 nM	–	–	–
CCC(=O)NCCCc1cccc2ncoc12 [Example 32, N-(3-Benzoxazol-7-ylpropyl)propanamide]	–	–	10 to 250 nM	< 10 nM	–
CC(C)C(=O)NCCCc1cccc2nc(C(C)C)oc12 [Example 37, 2-Methyl-N-{3-[2-(methylethyl)benzoxazol-7-yl]propyl}propanamide]	–	–	10 to 250 nM	10 to 250 nM	–
CCc1nc2cccc(CCCNC(=O)C3CC3)c2o1 [Example 11, Cyclopropyl-N-[3-(2-ethylbenzoxazol-7-yl)propyl]carboxamide]	–	–	< 10 nM	10 to 250 nM	–
CCC(=O)NCCCc1cccc2nc(CCCCc3ccccc3)oc12 [Example 26, N-{3-[2-(4-Phenylbutyl)benzoxazol-7-yl]propyl}propanamide]	–	–	< 10 nM	10 to 250 nM	–
N-({(1R,2R)-2-[2-(5-Phenylbutyl)benzoxazol-7-yl]cyclopropyl}methyl)acetamide [Example 94]	–	–	–	–	IC50 (melatonin ML1a receptor; Table III): < 10 nM; IC50 (melatonin ML1b receptor; Table III): < 10 nM
CCc1nc2ccc(-c3ccc(C(F)(F)F)cc3)c(CCCNC(=O)C3CC3)c2o1 [Example 51, Cyclopropyl-N-(3-{2-ethyl-6-[4-(trifluoromethyl)phenyl]benzoxazol-7-yl}propyl)carboxamide]	> 250 nM	10 to 250 nM	–	–	–
CCCc1nc2cccc(CCCNC(C)=O)c2o1 [Example 13, N-[3-(2-Propylbenzoxazol-7-yl)propyl]acetamide]	–	–	> 250 nM	10 to 250 nM	–
CC(C)C(=O)NCCCc1cccc2nc(-c3ccccc3)oc12 [Example 22, 2-Methyl-N-[3-(2-phenylbenzoxazol-7-yl)propyl]propanamide]	–	–	10 to 250 nM	10 to 250 nM	–
CCc1nc2ccc(-c3ccc(OC)cc3)c(CCCNC(C)=O)c2o1 [Example 52, N-{3-[2-Ethyl-6-(4-methoxyphenyl)benzoxazol-7-yl]propyl}acetamide]	10 to 250 nM	< 10 nM	–	–	–
CCC(=O)NCCCc1cccc2nc(CC)oc12 [Example 8, N-[3-(2-Ethylbenzoxazol-7-yl)propyl]propanamide]	–	–	< 10 nM	< 10 nM	–
